Data as given in PubChem BioAssay (NCI).
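All cell lines were grown in 96-well plates and treated with compound for 48 hours. TGI: concentration producing complete growth inhibition.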

Key:
Assay in all cases: inhibition of tumour cell growth, NCI panel, 48 h
786-0 renal = tested on: 786-0 renal
A498 renal = tested on: A498 renal
A549 NSCLC = tested on: A549 NSCLC
ACHN renal = tested on: ACHN renal
BT-549 breast = tested on: BT-549 breast
CAKI-1 renal = tested on: CAKI-1 renal
CCRF-CEM leukemia = tested on: CCRF-CEM leukemia
COLO 205 colon = tested on: COLO 205 colon
DU-145 prostate = tested on: DU-145 prostate
EKVX NSCLC = tested on: EKVX NSCLC
HCC-2998 colon = tested on: HCC-2998 colon
HCT-116 colon = tested on: HCT-116 colon
HCT-15 colon = tested on: HCT-15 colon
HL-60(TB) leukemia = tested on: HL-60(TB) leukemia
HS 578T breast = tested on: HS 578T breast
HT29 colon = tested on: HT29 colon
IGROV1 ovarian = tested on: IGROV1 ovarian
K-562 leukemia = tested on: K-562 leukemia
KM12 colon = tested on: KM12 colon
LOX IMVI melanoma = tested on: LOX IMVI melanoma
M14 melanoma = tested on: M14 melanoma
MALME-3M melanoma = tested on: MALME-3M melanoma
MCF7 breast = tested on: MCF7 breast
MDA-MB-231 breast = tested on: MDA-MB-231 breast
MDA-MB-435 = tested on: MDA-MB-435
MDA-N = tested on: MDA-N
MOLT-4 leukemia = tested on: MOLT-4 leukemia
NCI-H226 lung = tested on: NCI-H226 lung
NCI-H23 lung = tested on: NCI-H23 lung
NCI-H460 lung = tested on: NCI-H460 lung
NCI-H522 lung = tested on: NCI-H522 lung
NCI/ADR-RES ovarian = tested on: NCI/ADR-RES ovarian
OVCAR-4 ovarian = tested on: OVCAR-4 ovarian
OVCAR-5 ovarian = tested on: OVCAR-5 ovarian
OVCAR-8 ovarian = tested on: OVCAR-8 ovarian
RPMI-8226 leukemia = tested on: RPMI-8226 leukemia
RXF 393 renal = tested on: RXF 393 renal
SF-268 CNS = tested on: SF-268 CNS
SF-295 CNS = tested on: SF-295 CNS
SF-539 CNS = tested on: SF-539 CNS
SK-MEL-28 melanoma = tested on: SK-MEL-28 melanoma
SK-MEL-5 melanoma = tested on: SK-MEL-5 melanoma
SK-OV-3 ovarian = tested on: SK-OV-3 ovarian
SN12C renal = tested on: SN12C renal
SNB-19 CNS = tested on: SNB-19 CNS
SNB-75 CNS = tested on: SNB-75 CNS
SW-620 colon = tested on: SW-620 colon
T-47D breast = tested on: T-47D breast
TK-10 renal = tested on: TK-10 renal
U251 CNS = tested on: U251 CNS
UACC-257 melanoma = tested on: UACC-257 melanoma
UACC-62 melanoma = tested on: UACC-62 melanoma
UO-31 renal = tested on: UO-31 renal
HOP-62 NSCLC = tested on: HOP-62 NSCLC
HOP-92 NSCLC = tested on: HOP-92 NSCLC
OVCAR-3 ovarian = tested on: OVCAR-3 ovarian
PC-3 prostate = tested on: PC-3 prostate
SK-MEL-2 melanoma = tested on: SK-MEL-2 melanoma
SR leukemia = tested on: SR leukemia

SMILES: NCCCN(CCCCN(CCCN)Cc1ccccc1)Cc1ccccc1
- TGI (786-0 renal): 77.5 µM
- TGI (A498 renal): > 100 µM
- TGI (A549 NSCLC): > 100 µM
- TGI (ACHN renal): > 100 µM
- TGI (BT-549 breast): > 100 µM
- TGI (CAKI-1 renal): 31.9 µM
- TGI (CCRF-CEM leukemia): > 100 µM
- TGI (COLO 205 colon): > 100 µM
- TGI (DU-145 prostate): > 100 µM
- TGI (EKVX NSCLC): 96.5 µM
- TGI (HCC-2998 colon): 22.7 µM
- TGI (HCT-116 colon): > 100 µM
- TGI (HCT-15 colon): > 100 µM
- TGI (HL-60(TB) leukemia): > 100 µM
- TGI (HS 578T breast): 35.7 µM
- TGI (HT29 colon): 44.1 µM
- TGI (IGROV1 ovarian): 37.1 µM
- TGI (K-562 leukemia): > 100 µM
- TGI (KM12 colon): > 100 µM
- TGI (LOX IMVI melanoma): 40.5 µM
- TGI (M14 melanoma): > 100 µM
- TGI (MALME-3M melanoma): > 100 µM
- TGI (MCF7 breast): 60.5 µM
- TGI (MDA-MB-231 breast): > 100 µM
- TGI (MDA-MB-435): > 100 µM
- TGI (MDA-N): 33.1 µM
- TGI (MOLT-4 leukemia): 46 µM
- TGI (NCI-H226 lung): > 100 µM
- TGI (NCI-H23 lung): > 100 µM
- TGI (NCI-H460 lung): 32.2 µM
- TGI (NCI-H522 lung): 23.9 µM
- TGI (NCI/ADR-RES ovarian): > 100 µM
- TGI (OVCAR-4 ovarian): > 100 µM
- TGI (OVCAR-5 ovarian): 37.8 µM
- TGI (OVCAR-8 ovarian): > 100 µM
- TGI (RPMI-8226 leukemia): > 100 µM
- TGI (RXF 393 renal): > 100 µM
- TGI (SF-268 CNS): 37.1 µM
- TGI (SF-295 CNS): > 100 µM
- TGI (SF-539 CNS): > 100 µM
- TGI (SK-MEL-28 melanoma): > 100 µM
- TGI (SK-MEL-5 melanoma): > 100 µM
- TGI (SK-OV-3 ovarian): > 100 µM
- TGI (SN12C renal): 42.5 µM
- TGI (SNB-19 CNS): 22.5 µM
- TGI (SNB-75 CNS): 37.6 µM
- TGI (SW-620 colon): > 100 µM
- TGI (T-47D breast): > 100 µM
- TGI (TK-10 renal): > 100 µM
- TGI (U251 CNS): > 100 µM
- TGI (UACC-257 melanoma): > 100 µM
- TGI (UACC-62 melanoma): > 100 µM
- TGI (UO-31 renal): > 100 µM

SMILES: Cc1cccc2c(N)c3cccc(C(=O)NCC[N+](C)(C)Cc4ccccc4[N+](=O)[O-])c3nc12
- TGI (786-0 renal): 12.7 µM
- TGI (A498 renal): > 29.3 µM
- TGI (A549 NSCLC): > 54.5 µM
- TGI (ACHN renal): 13.9 µM
- TGI (BT-549 breast): > 39 µM
- TGI (CAKI-1 renal): > 100 µM
- TGI (COLO 205 colon): > 39.7 µM
- TGI (DU-145 prostate): > 100 µM
- TGI (EKVX NSCLC): > 100 µM
- TGI (HCC-2998 colon): > 25.9 µM
- TGI (HCT-116 colon): > 100 µM
- TGI (HCT-15 colon): > 100 µM
- TGI (HOP-62 NSCLC): > 41.4 µM
- TGI (HOP-92 NSCLC): 49.5 µM
- TGI (HS 578T breast): > 31.2 µM
- TGI (HT29 colon): 19.8 µM
- TGI (IGROV1 ovarian): > 100 µM
- TGI (K-562 leukemia): > 31.8 µM
- TGI (KM12 colon): > 100 µM
- TGI (LOX IMVI melanoma): > 100 µM
- TGI (M14 melanoma): > 40.3 µM
- TGI (MALME-3M melanoma): 25.8 µM
- TGI (MCF7 breast): > 100 µM
- TGI (MDA-MB-231 breast): > 55.6 µM
- TGI (MDA-MB-435): > 46.9 µM
- TGI (MDA-N): > 41.4 µM
- TGI (MOLT-4 leukemia): 9.34 µM
- TGI (NCI-H226 lung): > 100 µM
- TGI (NCI-H23 lung): 14.1 µM
- TGI (NCI-H460 lung): 16 µM
- TGI (NCI-H522 lung): 18.5 µM
- TGI (NCI/ADR-RES ovarian): > 37.1 µM
- TGI (OVCAR-3 ovarian): > 91.4 µM
- TGI (OVCAR-4 ovarian): > 34.5 µM
- TGI (OVCAR-5 ovarian): 60.2 µM
- TGI (OVCAR-8 ovarian): > 30.7 µM
- TGI (PC-3 prostate): 45.2 µM
- TGI (RPMI-8226 leukemia): > 58.3 µM
- TGI (RXF 393 renal): > 37.7 µM
- TGI (SF-268 CNS): > 35.2 µM
- TGI (SF-295 CNS): > 50.1 µM
- TGI (SF-539 CNS): > 32.5 µM
- TGI (SK-MEL-2 melanoma): > 54.6 µM
- TGI (SK-MEL-28 melanoma): > 71.1 µM
- TGI (SK-MEL-5 melanoma): > 41.1 µM
- TGI (SK-OV-3 ovarian): > 95.1 µM
- TGI (SN12C renal): > 39.9 µM
- TGI (SNB-19 CNS): > 100 µM
- TGI (SNB-75 CNS): 8.82 µM
- TGI (SR leukemia): 2.09 µM
- TGI (SW-620 colon): > 53 µM
- TGI (T-47D breast): > 100 µM
- TGI (TK-10 renal): > 20 µM
- TGI (U251 CNS): > 27.6 µM
- TGI (UACC-257 melanoma): > 70.7 µM
- TGI (UACC-62 melanoma): > 19.7 µM
- TGI (UO-31 renal): > 28.3 µM

SMILES: O=S(=O)(c1ccccc1)C1CC(c2nc3ccccc3[nH]2)=NO1 (stereo not given)
- TGI (A498 renal): > 100 µM
- TGI (A549 NSCLC): > 100 µM
- TGI (ACHN renal): > 100 µM
- TGI (BT-549 breast): > 100 µM
- TGI (CAKI-1 renal): > 100 µM
- TGI (CCRF-CEM leukemia): 82.6 µM
- TGI (COLO 205 colon): > 100 µM
- TGI (DU-145 prostate): > 100 µM
- TGI (EKVX NSCLC): > 100 µM
- TGI (HCC-2998 colon): > 100 µM
- TGI (HCT-116 colon): > 100 µM
- TGI (HCT-15 colon): > 100 µM
- TGI (HOP-62 NSCLC): > 100 µM
- TGI (HOP-92 NSCLC): > 100 µM
- TGI (HS 578T breast): > 100 µM
- TGI (HT29 colon): > 100 µM
- TGI (IGROV1 ovarian): > 100 µM
- TGI (K-562 leukemia): > 100 µM
- TGI (LOX IMVI melanoma): > 100 µM
- TGI (MALME-3M melanoma): > 100 µM
- TGI (MCF7 breast): > 100 µM
- TGI (MDA-MB-231 breast): > 100 µM
- TGI (MDA-MB-435): > 100 µM
- TGI (MDA-N): > 100 µM
- TGI (MOLT-4 leukemia): > 100 µM
- TGI (NCI-H226 lung): > 100 µM
- TGI (NCI-H23 lung): > 100 µM
- TGI (NCI-H460 lung): > 100 µM
- TGI (NCI-H522 lung): > 100 µM
- TGI (NCI/ADR-RES ovarian): > 100 µM
- TGI (OVCAR-3 ovarian): > 100 µM
- TGI (OVCAR-4 ovarian): > 100 µM
- TGI (OVCAR-5 ovarian): > 100 µM
- TGI (OVCAR-8 ovarian): > 100 µM
- TGI (PC-3 prostate): > 100 µM
- TGI (RPMI-8226 leukemia): > 100 µM
- TGI (RXF 393 renal): > 100 µM
- TGI (SF-268 CNS): > 100 µM
- TGI (SF-295 CNS): > 100 µM
- TGI (SF-539 CNS): > 100 µM
- TGI (SK-MEL-2 melanoma): > 100 µM
- TGI (SK-MEL-28 melanoma): > 100 µM
- TGI (SK-MEL-5 melanoma): > 100 µM
- TGI (SK-OV-3 ovarian): > 100 µM
- TGI (SN12C renal): > 100 µM
- TGI (SNB-19 CNS): > 100 µM
- TGI (SNB-75 CNS): > 100 µM
- TGI (SR leukemia): > 100 µM
- TGI (SW-620 colon): > 100 µM
- TGI (T-47D breast): > 100 µM
- TGI (TK-10 renal): > 100 µM
- TGI (U251 CNS): > 100 µM
- TGI (UACC-257 melanoma): > 100 µM
- TGI (UACC-62 melanoma): > 100 µM
- TGI (UO-31 renal): > 100 µM
